From patent US12023319B2, “Carboxylic acid aromatic amides” (priority 2016, dated 2024) come the findings set out here.

In experiment [1] the target is T1, native human Bradykinin B1 receptor (Homo sapiens, UniProt P46663).
T1 construct: which express native human Bradykinin B1 receptor after induction with human IL-1beta; Coriell Institute; host or cells: IMR-90 human foetal lung fibroblasts, induced with human IL-1beta
T1 sequence (P46663 1-353): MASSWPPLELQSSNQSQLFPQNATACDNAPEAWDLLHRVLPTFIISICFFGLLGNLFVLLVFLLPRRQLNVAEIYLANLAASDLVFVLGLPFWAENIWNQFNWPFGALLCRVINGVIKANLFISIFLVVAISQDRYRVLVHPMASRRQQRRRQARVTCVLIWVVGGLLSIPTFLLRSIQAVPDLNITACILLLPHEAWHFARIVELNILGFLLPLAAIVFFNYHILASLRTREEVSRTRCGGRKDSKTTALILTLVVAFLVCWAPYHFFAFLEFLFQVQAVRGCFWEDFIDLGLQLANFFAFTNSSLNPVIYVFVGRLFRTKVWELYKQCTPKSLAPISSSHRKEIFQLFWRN
Put plainly: Calcium flux assay (FLIPR) with IMR-90 human fibroblasts expressing Bradykinin B1 receptor after IL-1beta induction (hB1 IMR-90). Type of experiment: cell-based. The note with it: IMR-90 human fibroblasts after IL-1beta induction, read-out: hB1 IMR90 IC50. As for the experimental part: Calcium Flux Assay (FLIPR) with Human Fibroblasts Expressing Bradykinin B1 Receptor (hB1 IMR-90)
The Calcium flux Assay was carried out utilising IMR-90 human foetal lung fibroblasts (American Type Culture Collection, Rockville, MD; and Coriell Institute, Camden, New Jersey), which express native human Bradykinin B1 receptor after induction with human IL-1beta.
The fibroblasts were cultured in complete growth media comprised of Dulbecco's modified Eagle's medium (DMEM; Sigma) containing 10% foetal bovine serum, 4 mM L-glutamine, and 1% nonessential amino acids. The cells were maintained in a humidified atmosphere with 5% CO2 at 37° C. and were sub-cultured at a ratio of 1:3, every other day.
For the assay, IMR-90 fibroblasts were harvested using TrypLE Express (GIBCO/Invitrogen) and seeded into 384-well plates (Corning Cellbinding Surface, Cat. 3683) at a density of 15000 cells/well. The following day, cells were treated with 0.35 ng/mL human IL-1beta in 10% FBS/MEM for 3 h to up-regulate Bradykinin B1 receptor. Induced cells were loaded with fluorescent calcium indicator by incubation with 2.5 μM Fluo-4/AM (Invitrogen) at 37° C., 5% CO2 for 2 h in the presence of 2.5 mM probenecid in 1% FBS/MEM. […] Compound examples were assayed at 8 concentrations in triplicate. […] A peptide antagonist Lys-(Des-Arg-Leu)-Bradykinin (Bachem, Brackley) at 20 µM was used to determine the full inhibition as control. IC50 values were determined by the same way described for the FLI PR assay with recombinant cells.
For orientation: A change in cytosolic calcium serves as a functional read-out for many receptors and channels.

In experiment [2] the target is T2, human Bradykinin B1 receptor (Homo sapiens, UniProt P46663).
T2 construct: host or cells: CHO-K1
T2 sequence (P46663 1-353): T1 sequence (P46663 1-353)
Kind of experiment: Calcium flux assay (FLIPR), CHO-K1 cells expressing human Bradykinin B1 receptor, absence of 0.1% BSA (hB1 free IC50). Type of experiment: cell-based. Conditions: absence of 0.1% BSA in assay buffer. In outline: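 Peak FLIPR fluorescence (538 nm) after B1 agonist peptide addition gave IC50s, scaled between DMSO and full block by 20 µM Lys-(Des-Arg-Leu)-Bradykinin. Compounds were preincubated 30 min at 28° C with calcium-dye-loaded CHO-K1 cells expressing human B1, at 8 concentrations in triplicate, 1% DMSO final.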

For the compound `Cc1cc(NC(=O)C2(c3ccc(C(F)(F)F)cc3F)CC2)cc(C(=O)O)c1-c1cnn(C2CCC2)c1` [Example 107, 2-(1-Cyclobutyl-1H-pyrazol-4-yl)-5-[({1-[2-fluoro-4-(trifluoromethyl)phenyl]cyclopropyl}carbonyl)amino]-3-methylbenzoic acid], the results for the IC50 in experiment [1] and in experiment [2] were 36 nM and 22 nM, respectively.

Consider `O=C(O)c1cc(NC(=O)C2(c3ccc(C(F)(F)F)cc3F)CC2)cc(Cl)c1-c1cnn(C2CCC2)c1` [Example 100, 3-Chloro-2-(1-cyclobutyl-1H-pyrazol-4-yl)-5-[({1-[2-fluoro-4-(trifluoromethyl)phenyl]cyclopropyl}carbonyl)amino]benzoic acid], for which the IC50 (in general, the point on the concentration scale where inhibition reaches its midpoint) in experiment [1] worked out at 13 nM; in experiment [2] it was 8.9 nM.

On to `CC(C)(C)c1cn(-c2ccc(NC(=O)C3(c4ccc(C(F)(F)F)cc4F)CC3)cc2C(=O)O)cn1` [Example 67, 2-(4-tert-Butyl-1H-imidazol-1-yl)-5-[({1-[2-fluoro-4-(trifluoromethyl)phenyl]cyclopropyl}carbonyl)amino]benzoic acid], for which the IC50 in experiment [1] was 41 nM; in experiment [2] it was 61 nM.

In the case of `CC(C)(C)c1cn(-c2c(F)cc(NC(=O)C3(c4ccc(OC(F)(F)F)cc4F)CC3)cc2C(=O)O)cn1` [Example 91, 2-(4-tert-Butyl-1H-imidazol-1-yl)-3-fluoro-5-[({1-[2-fluoro-4-(trifluoromethoxy)phenyl]cyclopropyl}carbonyl)amino]benzoic acid], the IC50 was found to be 7.6 nM in experiment [1] and 20 nM in experiment [2].

For the compound `Cc1cc(NC(=O)C2(c3ccc(OC(F)(F)F)cc3F)CC2)cc(C(=O)O)c1-c1cnn(C2CCC2)c1` [Example 108, 2-(1-Cyclobutyl-1H-pyrazol-4-yl)-5-[({1-[2-fluoro-4-(trifluoromethoxy)phenyl]cyclopropyl}carbonyl)amino]-3-methylbenzoic acid], the IC50 in experiment [1] came to 13 nM; in experiment [2], 14 nM.

Take `CCC(F)(F)c1ccc(-c2c(Cl)cc(NC(=O)C3(c4ccc(OC(F)(F)F)cc4F)CC3)cc2C(=O)O)cn1` [Example 106, 3-Chloro-2-[6-(1,1-difluoropropyl)pyridin-3-yl]-5-[({1-[2-fluoro-4-(trifluoromethoxy)phenyl]cyclopropyl}carbonyl)amino]benzoic acid]: the IC50 in experiment [1] amounted to 35 nM; in experiment [2] it was 8.4 nM.

On to `O=C(O)c1cc(NC(=O)C2(c3ccc(C(F)(F)F)cc3F)CC2)ccc1-c1ccc(C(F)F)nc1` [Example 4, 2-[6-(Difluoromethyl)pyridin-3-yl]-5-[({1-[2-fluoro-4-(trifluoromethyl)phenyl]cyclopropyl}carbonyl)amino]benzoic acid], for which the results for the IC50 in experiment [1] and in experiment [2] were 3400 nM and 110 nM, respectively.

On to `CCC(F)(F)c1ccc(-c2ccc(NC(=O)C3(c4ccc(C)cc4F)CC3)cc2C(=O)O)cn1` [Example 26, 2-[6-(1,1-Difluoropropyl)pyridin-3-yl]-5-({[1-(2-fluoro-4-methylphenyl)cyclopropyl]carbonyl}amino)benzoic acid], for which the IC50 in experiment [1] was found to be 130 nM; in experiment [2], 140 nM.

`CC(C)(C)Cn1cc(-c2ccc(NC(=O)C3(c4ccc(OC(F)(F)F)cc4F)CC3)cc2C(=O)O)cn1` [Example 77, 2-[1-(2,2-Dimethylpropyl)-1H-pyrazol-4-yl]-5-[({1-[2-fluoro-4-(trifluoromethoxy)phenyl]cyclopropyl}carbonyl)amino]benzoic acid]: the results for the IC50 in experiment [1] and in experiment [2] were 13 nM and 17 nM, respectively.

For `CC(C)n1cc(-c2c(F)cc(NC(=O)C3(c4ccc(OC(F)(F)F)cc4F)CC3)cc2C(=O)O)cn1` [Example 89, 3-Fluoro-5-[({1-[2-fluoro-4-(trifluoromethoxy)phenyl]cyclopropyl}carbonyl)amino]-2-[1-(propan-2-yl)-1H-pyrazol-4-yl]benzoic acid], the values for the IC50 in experiment [1] and in experiment [2] were 14 nM and 32 nM, respectively.

With `CC(C)(C)c1ccn(-c2ccc(NC(=O)C3(c4ccc(C(F)(F)F)cc4F)CC3)cc2C(=O)O)n1` [Example 12, 2-(3-tert-Butyl-1H-pyrazol-1-yl)-5-[({1-[2-fluoro-4-(trifluoromethyl)phenyl]cyclopropyl}carbonyl)amino]benzoic acid], the IC50 stood at 2900 nM in experiment [1] and 1200 nM in experiment [2].

In the case of `CCOc1ccc(-c2ccc(NC(=O)C3(c4cccc(Cl)c4)CC3)cc2C(=O)O)cn1` [Example 9, 5-({[1-(3-Chlorophenyl)cyclopropyl]carbonyl}amino)-2-(6-ethoxypyridin-3-yl)benzoic acid], the figures for the IC50 in experiment [1] and in experiment [2] were 320 nM and 140 nM, respectively.

For the compound `O=C(O)c1cc(NC(=O)C2(c3ccc(OC(F)(F)F)cc3)CC2)cc(F)c1-c1cnn(C2CCC2)c1` [Example 37, 2-(1-Cyclobutyl-1H-pyrazol-4-yl)-3-fluoro-5-[({1-[4-(trifluoromethoxy)phenyl]cyclopropyl}carbonyl)amino]benzoic acid], the IC50 in experiment [1] is 5.6 nM; in experiment [2] it was 20 nM.

Take `O=C(O)c1cc(NC(=O)C2(c3cccc(Cl)c3)CC2)ccc1-c1cnn(C2CCC2)c1` [Example 28, 5-({[1-(3-Chlorophenyl)cyclopropyl]carbonyl}amino)-2-(1-cyclobutyl-1H-pyrazol-4-yl)benzoic acid]: the IC50 in experiment [1] amounted to 460 nM; in experiment [2], 300 nM.

`CCC(F)(F)c1ccc(-c2c(F)cc(NC(=O)C3(c4ccc(C(F)(F)F)cc4F)CC3)cc2C(=O)O)cn1` [Example 96, 2-[6-(1,1-Difluoropropyl)pyridin-3-yl]-3-fluoro-5-[({1-[2-fluoro-4-(trifluoromethyl)phenyl]cyclopropyl}carbonyl)amino]benzoic acid]: the IC50 in experiment [1] was found to be 25 nM; in experiment [2] it was 8.1 nM.

Regarding `CC(C)(C)c1cnn(-c2ccc(NC(=O)C3(c4ccc(C(F)(F)F)cc4F)CC3)cc2C(=O)O)c1` [Example 17, 2-(4-tert-Butyl-1H-pyrazol-1-yl)-5-[({1-[2-fluoro-4-(trifluoromethyl)phenyl]cyclopropyl}carbonyl)amino]benzoic acid], the IC50 stood at 100 nM in experiment [1] and 230 nM in experiment [2].

As for `O=C(O)c1cc(NC(=O)C2(c3ccc(OC(F)(F)F)cc3F)CC2)ccc1-c1cnn(C2CCC2)c1` [Example 51, 2-(1-Cyclobutyl-1H-pyrazol-4-yl)-5-[({1-[2-fluoro-4-(trifluoromethoxy)phenyl]cyclopropyl}carbonyl)amino]benzoic acid], the IC50 in experiment [1] amounted to 19 nM; in experiment [2], 17 nM.

As for `CC(C)(C)n1cc(-c2ccc(NC(=O)C3(c4ccc(OC(F)(F)F)cc4F)CC3)cc2C(=O)O)cn1` [Example 73, 2-(1-tert-Butyl-1H-pyrazol-4-yl)-5-[({1-[2-fluoro-4-(trifluoromethoxy)phenyl]cyclopropyl}carbonyl)amino]benzoic acid], the IC50 in experiment [1] worked out at 44 nM; in experiment [2] it was 21 nM.

Regarding `O=C(O)c1cc(NC(=O)C2(c3ccc(Cl)cc3F)CC2)ccc1-c1cnn(C2CCC2)c1` [Example 53, 5-({[1-(4-Chloro-2-fluorophenyl)cyclopropyl]carbonyl}amino)-2-(1-cyclobutyl-1H-pyrazol-4-yl)benzoic acid], the IC50 in experiment [1] was determined as 15 nM; in experiment [2], 32 nM.

On to `CCOc1ccc(-c2ccc(NC(=O)C3(c4ccc(C(F)(F)F)cc4F)CC3)cc2C(=O)O)cn1` [Example 10, 2-(6-Ethoxypyridin-3-yl)-5-[({1-[2-fluoro-4-(trifluoromethyl)phenyl]cyclopropyl}carbonyl)amino]benzoic acid], for which the results for the IC50 in experiment [1] and in experiment [2] were 33 nM and 18 nM, respectively.

In the case of `O=C(O)c1cc(NC(=O)C2(c3cc(Cl)ccc3F)CC2)ccc1-c1cnn(C2CCC2)c1` [Example 54, 5-({[1-(5-Chloro-2-fluorophenyl)cyclopropyl]carbonyl}amino)-2-(1-cyclobutyl-1H-pyrazol-4-yl)benzoic acid], the results for the IC50 in experiment [1] and in experiment [2] were 22 nM and 26 nM, respectively.

Turning to `CCOc1ccc(-c2ccc(NC(=O)C3(c4ccc(OC(F)(F)F)cc4F)CC3)cc2C(=O)O)cn1` [Example 11, 2-(6-Ethoxypyridin-3-yl)-5-[({1-[2-fluoro-4-(trifluoromethoxy)phenyl]cyclopropyl}carbonyl)amino]benzoic acid], the IC50 in experiment [1] came to 25 nM; in experiment [2] it was 19 nM.
